In patent publication US12435061B2 (priority 2020, dated 2025):
≈ marks a conversion by molar mass, not a printed value. Where two headings read alike, the source gives them in different places.

Assays:
hTRPV3 [1] = target: T1, hTRPV3 (Homo sapiens (Human), UniProt Q8NET8); experiment: Whole-cell patch clamp, hTRPV3 Phase 1 / Phase 2 currents; assay type: cell-based
Summary of the method: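 Whole-cell recordings on induced TRPV3 cells replated on coverslips, held at −40 mV with 400 ms ramps from −120 to +100 mV every 5 s; currents read at −80 and +80 mV. Ringer's external solution; current activated by heating to ≥28 °C or 20 μM 2-APB.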

[2] = Metabolic Stability assay, rat liver microsomes; assay type: in vitro ADME; conditions: for half-life at 1 μM: read-out: LM T1/2 (min) (rat)
Summary of the method: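 Test article at 1 μM starting concentration incubated with human or rat liver microsomes at 37 °C, with the reaction started by NADPH regeneration components. Aliquots were quenched in cold acetonitrile/MeOH/H2O at 0, 7, 15, 30 and 60 min and analysed by HPLC/MS/MS.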

hTRPV3 [3] = target: T1, hTRPV3; experiment: hTRPV3 HAMA IC50 assay (Hamamatsu FDSS6000 calcium flux, TRex-293 cells)
Procedure: IC50s were calculated using CBIS from ChemInnovation (San Diego).

[4] = Aqueous solubility assay in Normal Ringer Solution; conditions: Normal Ringer Solution; for solubility at 40 min: saline or isotonic, kinetic from dmso stock
Procedure: Following vortex and incubation for a sufficient time (e.g. 40 minutes at room temperature), solutions were filtered, quenched with acetonitrile, and analyzed by Liquid Chromotography. Solubility Limits were determined by comparison to a standard curve.

[5] = Phase 1 current, inward, whole-cell patch clamp, read-out: hTRPV3 Patch P1 Inwd
[6] = Phase 1 current, read-out: hTRPV3 (nM) (Phase 1)
[7] = hTRPV3 HAMA IC50 (nM) (30 min), 30 min
[8] = Phase 2 current, inward, whole-cell patch clamp, read-out: hTRPV3 Patch P2 Inwd
[9] = Phase 2 current, read-out: hTRPV3 (nM) (Phase 2)
[10] = hTRPV3 HAMA IC50 (nM) (5 min), 5 min

T1 sequence (Q8NET8 whole entry): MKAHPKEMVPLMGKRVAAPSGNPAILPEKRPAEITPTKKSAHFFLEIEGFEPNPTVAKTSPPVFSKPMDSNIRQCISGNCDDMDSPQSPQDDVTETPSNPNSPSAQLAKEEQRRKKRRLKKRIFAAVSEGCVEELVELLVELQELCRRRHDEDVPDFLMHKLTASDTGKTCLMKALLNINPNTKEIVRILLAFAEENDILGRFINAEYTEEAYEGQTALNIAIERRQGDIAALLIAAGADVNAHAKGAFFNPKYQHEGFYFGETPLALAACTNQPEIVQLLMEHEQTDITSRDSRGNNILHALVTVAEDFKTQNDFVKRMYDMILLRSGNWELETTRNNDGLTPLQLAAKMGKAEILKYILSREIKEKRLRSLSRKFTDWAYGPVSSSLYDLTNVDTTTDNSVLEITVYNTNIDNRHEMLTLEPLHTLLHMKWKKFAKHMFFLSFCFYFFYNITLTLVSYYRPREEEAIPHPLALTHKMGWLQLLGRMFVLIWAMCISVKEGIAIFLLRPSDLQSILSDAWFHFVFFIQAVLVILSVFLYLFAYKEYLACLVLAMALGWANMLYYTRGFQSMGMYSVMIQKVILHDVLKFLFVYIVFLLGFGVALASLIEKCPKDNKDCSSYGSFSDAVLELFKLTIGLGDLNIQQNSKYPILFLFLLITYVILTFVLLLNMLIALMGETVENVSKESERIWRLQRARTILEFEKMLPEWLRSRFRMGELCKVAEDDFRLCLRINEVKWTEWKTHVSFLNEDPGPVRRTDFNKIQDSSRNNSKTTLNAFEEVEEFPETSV

Compound	IC50 (hTRPV3 [1]; [5])	IC50 (hTRPV3 [1]; [6])	half-life at 1 μM [2]	hTRPV3 HAMA IC50 (nM) (5 min) (hTRPV3 [3]; 5 min)	solubility at 40 min [4]	Solubility Ringer (nM) ([4]; room temperature)	IC50 (hTRPV3 [1]; [8])	IC50 (hTRPV3 [1]; [9])	other results
NC(=O)c1cc(C(=O)c2ccccc2)ccc1N1CC[C@@H](Oc2ccc(C(F)(F)F)cn2)C1 [Compound 1-154, (R)-5-benzoyl-2-(3-(5-(trifluoromethyl)pyridin-2-yloxy)pyrrolidin-1-yl)benzamide]	> 1000 nM	3040 nM	54.5 min	no fit (5 min)					
NC(=O)c1cc(C(=O)c2ccccc2)ccc1N1CC[C@H](Oc2ccc(C(F)(F)F)cn2)C1 [Compound 1-130, (S)-5-benzoyl-2-(3-(5-(trifluoromethyl)pyridin-2-yloxy)pyrrolidin-1-yl)benzamide]	> 1000 nM	1540 nM	67 min	no fit (5 min)	~12.2 µM (≈ 5.56 µg/mL)				
CCc1ccccc1Oc1ccc(N2CC[C@H](Oc3ncccc3Cl)C2)c(CO)c1 [Compound 1-222, (S)-(2-(3-(3-chloropyridin-2-yloxy)pyrrolidin-1-yl)-5-(2-ethylphenoxy)phenyl)methanol]	< 10 nM	3.91 nM	18.7 min	no fit		BLQ			IC50 (hTRPV3 [3]; [7]): 1790 nM
OCc1cc(Oc2ccccc2Cl)ccc1N1CC[C@H](Oc2ncccc2Cl)C1 [Compound 1-223, (S)-(5-(2-chlorophenoxy)-2-(3-(3-chloropyridin-2-yloxy)pyrrolidin-1-yl)phenyl)methanol]	10 to 100 nM	39.3 nM	17.2 min	no fit		BLQ	10 to 100 nM	13.3 nM	IC50 (hTRPV3 [3]; [7]): 14600 nM
Cc1cccnc1O[C@H]1CCN(c2ccc(-c3ccccc3)cc2CO)C1 [Compound 1-131, (S)-(4-(3-(3-methylpyridin-2-yloxy)pyrrolidin-1-yl)biphenyl-3-yl)methanol]	100 to 1000 nM	148 nM	23.5 min	no fit (5 min)	~0.62 µM (≈ 0.223 µg/mL)				
OCc1nc(Oc2ccccc2)ccc1N1CC[C@H](Oc2ccc(C(F)(F)F)cn2)C1 [Compound 1-139, (S)-(6-phenoxy-3-(3-(5-(trifluoromethyl)pyridin-2-yloxy)pyrrolidin-1-yl)pyridin-2-yl)methanol]	10 to 100 nM	23.6 nM							Solubility Ringer ([4]; room temperature): ~0.3 µM (≈ 0.129 µg/mL); LM T1/2 (min) (rat) ([2]; 1 μM): 30.7 (rat) min; IC50 (hTRPV3 [3]; read-out: hTRPV3 HAMA IC50 (nM) (5 min), 5 min): 5750 nM
OCc1cc(Oc2ccccc2)ccc1N1CC[C@H](Oc2ncccc2Cl)C1 [Compound 1-168, (S)-(2-(3-(3-chloropyridin-2-yloxy)pyrrolidin-1-yl)-5-phenoxyphenyl)methanol]	10 to 100 nM	61.2 nM	26.7 min		~0.5 µM (≈ 0.198 µg/mL)		10 to 100 nM	90.5 nM	IC50 (hTRPV3 [3]; [10]): > 20000 nM
NC(=O)c1cc(Cc2ccccc2)ccc1N1CC[C@H](Oc2ccc(C(F)(F)F)cn2)C1 [Compound 1-140, (S)-5-benzyl-2-(3-(5-(trifluoromethyl)pyridin-2-yloxy)pyrrolidin-1-yl)benzamide]			27.7 min	no fit (5 min)		BLQ			IC50 (hTRPV3 [1]; hTRPV3 Patch P1 Inwd (nM)): 100 to 1000 nM; IC50 (hTRPV3 [1]; read-out: hTRPV3 (nM) (Phase 1)): 710 nM
COc1ccccc1Oc1ccc(N2CC[C@H](Oc3ncccc3Cl)C2)c(CCO)c1 [Compound 1-237, (S)-2-(2-(3-(3-chloropyridin-2-yloxy)pyrrolidin-1-yl)-5-(2-methoxyphenoxy)phenyl)ethanol]	100 to 1000 nM	251 nM	8.33 min		~1.5 µM (≈ 0.661 µg/mL)				IC50 (hTRPV3 [3]; [10]): > 20000 nM; IC50 (hTRPV3 [3]; [7]): 19800 nM
CCc1ccccc1Oc1ccc(N2CC[C@H](Oc3ncccc3Cl)C2)c(CCO)c1 [Compound 1-236, (S)-2-(2-(3-(3-chloropyridin-2-yloxy)pyrrolidin-1-yl)-5-(2-ethylphenoxy)phenyl)ethanol]	< 10 nM	8.27 nM		no fit		BLQ			IC50 (hTRPV3 [3]; [7]): 5900 nM
O=[N+]([O-])c1cc(-c2ccccc2)ccc1N1CC[C@H](Oc2ccc(C(F)(F)F)cn2)C1 [Compound 1-66, (S)-2-(1-(3-nitrobiphenyl-4-yl)pyrrolidin-3-yloxy)-5-(trifluoromethyl)pyridine]				no fit (5 min)		BLQ			hTRPV3 (nM) (Phase 1) (hTRPV3 [1]): Incomplete Block (Phase 1)
OCc1ccc(-c2ccccc2)cc1N1CC[C@H](Oc2ccc(C(F)(F)F)cn2)C1 [Compound 1-180, (S)-(3-(3-(5-(trifluoromethyl)pyridin-2-yloxy)pyrrolidin-1-yl)biphenyl-4-yl)methanol]	> 1000 nM	1550 nM		no fit (5 min) no fit (30 min)	~0.2 µM (≈ 0.0829 µg/mL)		> 1000 nM	1860 nM	hTRPV3 HAMA IC50 (nM) (30 min) (hTRPV3 [3]; 30 min): no fit (5 min) no fit (30 min)
NC(=O)c1cc(Oc2ccccc2Cl)ccc1N1CC[C@H](Oc2ncccc2Cl)C1 [Compound 1-181, (S)-5-(2-chlorophenoxy)-2-(3-(3-chloropyridin-2-yloxy)pyrrolidin-1-yl)benzamide]	100 to 1000 nM	571 nM	8.96 min	no fit (5 min)			100 to 1000 nM	834 nM	
NC(=O)c1cc(Oc2ccccc2)ccc1N1CC[C@H](Oc2ncccc2Cl)C1 [Compound 1-129]			6.42 min						IC50 (hTRPV3 [1]; hTRPV3 Patch P1 Inwd (nM)): 100 to 1000 nM; hTRPV3 HAMA IC50 (nM) (5 min) (hTRPV3 [3]): no fit (5 min)
OCc1cc(-c2ccccc2OC(F)(F)F)ccc1N1CC[C@H](Oc2ccc(C(F)(F)F)cn2)C1 [Compound 1-161, (S)-(2′-(trifluoromethoxy)-4-(3-(5-(trifluoromethyl)pyridin-2-yloxy)pyrrolidin-1-yl)biphenyl-3-yl)methanol]	10 to 100 nM	93.4 nM		no fit (5 min)		BLQ			
NC(=O)c1cc(-c2ccccc2)ccc1N1CC[C@H](Oc2ccc3cc(Cl)ccc3n2)C1 [Compound 1-67, (S)-4-(3-(6-chloroquinolin-2-yloxy)pyrrolidin-1-yl)biphenyl-3-carboxamide]	> 1000 nM	1270 nM		no fit (5 min)		BLQ	100 to 1000 nM	585 nM	
CCOc1ccccc1-c1ccc(N2CC[C@H](Oc3ccc(C(F)(F)F)cn3)C2)c(CO)c1 [Compound 1-162, (S)-(2′-ethoxy-4-(3-(5-(trifluoromethyl)pyridin-2-yloxy)pyrrolidin-1-yl)biphenyl-3-yl)methanol]	10 to 100 nM	101 nM	22.8 min	no fit (5 min)					
Cc1ccccc1-c1ccc(N2CC[C@H](Oc3ncccc3C)C2)c(CO)n1 [Compound 1-179, (S)-(3-(3-(3-methylpyridin-2-yloxy)pyrrolidin-1-yl)-6-o-tolylpyridin-2-yl)methanol]	100 to 1000 nM	329 nM		no fit (5 min)	> 0.73 µM		100 to 1000 nM	~841 nM	
Cc1ccccc1-c1ccc(N2CC[C@H](Oc3ccc(C(F)(F)F)cn3)C2)c(CO)c1 [Compound 1-128, (S)-(2′-methyl-4-(3-(5-(trifluoromethyl)pyridin-2-yloxy)pyrrolidin-1-yl)biphenyl-3-yl)methanol]	100 to 1000 nM	114 nM		no fit (5 min)		BLQ			
